Measurements as given in patent publication EP0397424A2, “Multiple analysis system” (Biotrack, Inc., priority 1989, dated 1990).

Test system: red cells
Test: Red cell lysis by detergent-saturated polyethylene reagent pads (completeness of lysis, red cell fragments)
Format: cell-based
Design: key: + = complete lysis or absence of red cell fragments; - = incomplete lysis or presence of red cell fragments
Settings: blood passed through reagent pad saturated with detergent solution
Method: Centered polyethylene reagent pads were saturated with a detergent solution, and the ability of the pad to provide completely lysed blood not containing any red cell fragments was analyzed. Since this sample is also used in the blood donor cartridge as described above to provide sample that is used in an agglutination reaction, inhibition of the agglutination reaction was also measured. Inhibition of agglutination was done subjectively, with 0 indicating little or no inhibition of agglutination and 5 representing the maximum amount of inhibition (essentially no agglutination under normal agglutinating conditions).
Other combinations of detergents can be determined in the same manner by measuring both red cell lysis and inhibition of agglutination and selecting a combination of detergents that provides the desired complete lysis with a minimum of inhibition.

mellitin
Red Cell Fragments (+ = absence of fragments): - | Incomplete RBC lysis (+ = complete lysis): +
